According to US12280082B2, “Formulation for inhibiting virus replication” (priority 2020, dated 2025):
Read-outs that look alike come from different tables or passages of the source.

What was measured:
SARS-COV2 = assay: microbe, parasite or virus in culture; type: cell-based; conditions: Severe acute respiratory syndrome coronavirus 2, Vero C1008, 48 h
VeroE6 cells = assay: In vitro cytotoxicity (Hoechst 33342 / Sytox orange imaging); type: cell-based
Experimental: The cytotoxicity assay was done in a 96-well plate format in 3 wells for each sample. 1×10e4 VeroE6 cells were plated per well and incubated at 37° C. overnight for the monolayer formation. Next day, cells were incubated with 1 μl (5.5 mg/ml solution in 200 μl) A. paniculate at the concentration with final DMSO conc. being 0.5%. The control cells were incubated with 0.5% DMSO only. The cells without test substance was the control for water soluble compounds. 24 and 48 hours later, cells were stained with Hoechst 33342 and Sytox orange dye. Images were taken at 10×, 16 images per well, which covers 90% of well area using ImageXpress Microconfocal (Molecular Devices). Hoechst 33342 nucleic acid stain is a popular cell-permeant nuclear counterstain that emits blue fluorescence when bound to dsDNA. It stains all the live and dead cells. Sytox orange dye stains nucleic acids in cells with compromised membranes. This stain is an indicator of cell death. First, the software will count total number of cells in the Hoechst image. In the Sytox image, it will count, among Hoechst positive cells, how many cells are positive for sytox.

**Q.** With `CCC(CC)COC(=O)[C@H](C)N[P@](=O)(OC[C@H]1O[C@@](C#N)(c2ccc3c(N)ncnn23)[C@H](O)[C@@H]1O)Oc1ccccc1` [Remdesivir] as the compound, how does the IC50 (SARS-COV2; read-out: IC50 for E gene) read?
**A.** 150 nM

**Q.** And the IC50 (SARS-COV2; read-out: IC50 for N gene)?
**A.** 110 nM

**Q.** And the “percentage of cell viability” value (VeroE6 cells; 24th hour of treatment)?
**A.** 99.23%

**Q.** And the “percentage of cell viability” value (VeroE6 cells; 48th hour of treatment)?
**A.** 94.37%
